# Assay results published in patent publication US20240261261A1, “NEW FORMULATION FOR INJECTION COMPRISING 1-(5-(2,4-DIFLUOROPHENYL)-1-((3-FLUOROPHENYL)SULFONYL)-4-METHOXY-1H-PYRROL-3-YL)-N-METHYLMETHANAMINE” (DAEWOONG PHARMACEUTICAL CO., LTD., priority 2021, published 2024).
# Assay: Water solubility
# Assay type: physicochemical
# Conditions: aqueous buffer, pH 6.8, the substance or its hydrochloride
smiles,measurement,value
"CNCc1cn(S(=O)(=O)c2cccc(F)c2)c(-c2ccc(F)cc2F)c1OC [Chemical Formula 1, 1-(5-(2,4-difluorophenyl)-1-((3-fluorophenyl)sulfonyl)-4-methoxy-1H-pyrrol-3-yl)-N-methylmethanamine]",solubility,2170 µg/mL
